Article PMC5578959, “Selective LRRK2 kinase inhibition reduces phosphorylation of endogenous Rab10 and Rab12 in human peripheral mononuclear blood cells” (Scientific Reports, 2017)

Key:
Rab12-pSer106 = assay: Western Blot, cultured immune stimulated human PBMCs; type: cell-based; settings: 100 nM, 1hr or 24 hrs
Protocol: PBMC were isolated from fresh blood collected within a maximal time of 4 hours after blood collection. Leucosep tubes (Greiner 227290) was added 15 ml Ficoll (GE Healthcare 17-440-03) and spun 30 s at 1000 × g. Blood was diluted 1:1 using D-PBS 1X (Gibco 14190), transfered to the Leucosep and centrifuged at 800 g for 15 min without brake. The upper layer corresponding to the diluted plasma was removed and the PBMC layer collected using a pipette or by pouring into a clean BD Falcon 50 ml tube. Cells were re-suspended and washed four times with 10 ml of D-PBS 1X (Gibco 14190) followed by centrifugation at 250 g for 10 min with brake at room temperature. The supernatant was discarded and the cells re-suspended in Complete medium equilibrated to 37 °C. The number of dead and living cells were counted on a Nucleocounter and used to calculate percent viability. […]
Cell pellets were resuspended and solubilized in 100 µL lysis buffer (50 mM Tris hydrochloride, 1 mM magnesium chloride, 1% Triton, 0.1% sodium dodecyl sulfate (SDS), pH 8.0) on ice for 20 minutes and then centrifuged at 20,000 g for 30 minutes at 4 °C. […] The proteins were visually detected by infrared imaging using Odyssey CLx (LI-COR, Nebraska, US). Membranes were scanned and band intensities were quantified using the Image Studio version 3.1.4 (LI-COR, Nebraska).

Rab10-pThr73 = assay: as above; type: cell-based; settings: 100 nM
Protocol: PBMC were isolated from fresh blood collected within a maximal time of 4 hours after blood collection. Leucosep tubes (Greiner 227290) was added 15 ml Ficoll (GE Healthcare 17-440-03) and spun 30 s at 1000 × g. Blood was diluted 1:1 using D-PBS 1X (Gibco 14190), transfered to the Leucosep and centrifuged at 800 g for 15 min without brake. The upper layer corresponding to the diluted plasma was removed and the PBMC layer collected using a pipette or by pouring into a clean BD Falcon 50 ml tube. Cells were re-suspended and washed four times with 10 ml of D-PBS 1X (Gibco 14190) followed by centrifugation at 250 g for 10 min with brake at room temperature. The supernatant was discarded and the cells re-suspended in Complete medium equilibrated to 37 °C. The number of dead and living cells were counted on a Nucleocounter and used to calculate percent viability.
Freshly isolated PBMCs were plated at a density ranging from 7–20 × 10^6 cells in 10 cm petri dishes (Costar 3262) in RPMI-1640 media (Gibco 61870–010) supplemented with 10% non-heat inactivated FBS, 5 ml Antimycotic (Sigma cat:5965) with or without an immune stimulation cocktail consisting of 400 nM phorbol 12-myristate 13-acetate (PMA) and 100 ng/ml interferon-γ (INF-γ). After 48 hrs in culture the cultures were added a fifth of the volume media containing 5x the final concentration of the respective LRRK2 inhibitor with or without PMA and interferon-γ. […] After 72 hrs in culture the PBMC’s were harvested, pelleted and fresh-frozen on dry-ice. An aliquot of PBMCs was used for assessment of PBMC yield and viability.
Cell pellets were resuspended and solubilized in 100 µL lysis buffer (50 mM Tris hydrochloride, 1 mM magnesium chloride, 1% Triton, 0.1% sodium dodecyl sulfate (SDS), pH 8.0) on ice for 20 minutes and then centrifuged at 20,000 g for 30 minutes at 4 °C. The solubilized crude cell lysate was size mobility separated by SDS-polyacrylamide gel electrophoresis (SDS-PAGE). LRRK2 was separated on a 3–8% Tris-Acetate gel (NuPAGE® Tris-Acetate Mini Gels, Life Technologies, Paisley, UK) and Rab10 and Rab12 were separated using a NuPAGE® Novex 4–12% Bis-Tris Gel (Invitrogen, California, US). An amount of 10 µg total protein was loaded in each well. Proteins were transferred to immobilon-FL PVDF membranes (Millipore, Billerica, US). […] The proteins were visually detected by infrared imaging using Odyssey CLx (LI-COR, Nebraska, US). Membranes were scanned and band intensities were quantified using the Image Studio version 3.1.4 (LI-COR, Nebraska).

MSK2 domain1 = system: T1, MSK2 domain1; assay: KiNativ profiling in human PBMCs; type: binding; settings: Lys2
T1 construct: MSK2 domain1; purchased ActivX Technologies (KiNativ)
Protocol: (§1) Compounds were shipped to ActivX Technologies (San Diego, US) where LRRK2 target engagement and broad kinase profiling was performed using KiNativ™ procedures. Live cell treatment of human peripheral blood mononuclear cells (PBMCs) at two compound concentrations (1 µM and 0.1 µM) were used to evaluate and compare in vitro target engagement and kinase selectivity, respectively (see Supplementary File 1).

IKKe,TBK1 = assay: KiNativ profiling in human PBMCs; type: binding; settings: Lys2
Protocol: as §1

TLK1 = system: T2, TLK1; assay: KiNativ profiling in human PBMCs; type: binding
T2 construct: purchased ActivX Technologies (KiNativ)
Protocol: as §1

MAP3K4 = system: T3, MAP3K4; assay: KiNativ profiling in human PBMCs; type: binding; settings: Lys2
T3 construct: purchased ActivX Technologies (KiNativ)
Protocol: as §1

SGK3 = system: T4, SGK3; assay: KiNativ profiling in human PBMCs; type: binding
T4 construct: purchased ActivX Technologies (KiNativ)
Protocol: as §1

GCK = system: T5, GCK; assay: KiNativ profiling in human PBMCs; type: binding
T5 construct: purchased ActivX Technologies (KiNativ)
Protocol: as §1

LOK = system: T6, LOK; assay: KiNativ profiling in human PBMCs; type: binding
T6 construct: purchased ActivX Technologies (KiNativ)
Protocol: as §1

KSR1 = system: T7, KSR1; assay: KiNativ profiling in human PBMCs; type: binding; settings: Activation Loop
T7 construct: purchased ActivX Technologies (KiNativ)
Protocol: as §1

MSK1 domain1 = system: T8, MSK1 domain1; assay: KiNativ profiling in human PBMCs; type: binding; settings: Lys2
T8 construct: MSK1 domain1; purchased ActivX Technologies (KiNativ)
Protocol: as §1

TLK2 = system: T9, TLK2; assay: KiNativ profiling in human PBMCs; type: binding
T9 construct: purchased ActivX Technologies (KiNativ)
Protocol: as §1

CaMK1d = system: T10, CaMK1d; assay: KiNativ profiling in human PBMCs; type: binding
T10 construct: purchased ActivX Technologies (KiNativ)
Protocol: as §1

NEK1 = system: T11, NEK1; assay: KiNativ profiling in human PBMCs; type: binding; settings: Lys2
T11 construct: purchased ActivX Technologies (KiNativ)
Protocol: as §1

[1] = system: ZC1/HGK,ZC2/TNIK,ZC3/MINK; assay: KiNativ profiling in human PBMCs; type: binding; settings: Lys2
Protocol: as §1

CDK7 = system: T12, CDK7; assay: KiNativ profiling in human PBMCs; type: binding; settings: Lys2
T12 construct: purchased ActivX Technologies (KiNativ)
Protocol: as §1

MARK2,MARK3 = assay: KiNativ profiling in human PBMCs; type: binding; settings: Lys2
Protocol: as §1

RSK2 domain1 = system: T13, RSK2 domain1; assay: KiNativ profiling in human PBMCs; type: binding
T13 construct: RSK2 domain1; purchased ActivX Technologies (KiNativ)
Protocol: as §1

MAP3K2 = system: T14, MAP3K2; assay: KiNativ profiling in human PBMCs; type: binding; settings: Lys1
T14 construct: purchased ActivX Technologies (KiNativ)
Protocol: as §1

p70S6K,p70S6Kb = assay: KiNativ profiling in human PBMCs; type: binding; settings: ATP Loop
Protocol: as §1

BTK = system: T15, BTK; assay: KiNativ profiling in human PBMCs; type: binding
T15 construct: purchased ActivX Technologies (KiNativ)
Protocol: as §1

FYN,SRC,YES = assay: KiNativ profiling in human PBMCs; type: binding; settings: Activation Loop
Protocol: as §1

IKKa = system: T16, IKKa; assay: KiNativ profiling in human PBMCs; type: binding; settings: Lys2
T16 construct: purchased ActivX Technologies (KiNativ)
Protocol: as §1

PKN1 = system: T17, PKN1; assay: KiNativ profiling in human PBMCs; type: binding
T17 construct: purchased ActivX Technologies (KiNativ)
Protocol: as §1

PKCa,PKCb = assay: KiNativ profiling in human PBMCs; type: binding; settings: Lys2
Protocol: as §1

ULK3 = system: T18, ULK3; assay: KiNativ profiling in human PBMCs; type: binding
T18 construct: purchased ActivX Technologies (KiNativ)
Protocol: as §1

DGKA = system: T19, DGKA; assay: KiNativ profiling in human PBMCs; type: binding; settings: ATP
T19 construct: purchased ActivX Technologies (KiNativ)
Protocol: as §1

PIP5K3 = system: T20, PIP5K3; assay: KiNativ profiling in human PBMCs; type: binding; settings: ATP
T20 construct: purchased ActivX Technologies (KiNativ)
Protocol: as §1

RSK2 domain2 = system: T21, RSK2 domain2; assay: KiNativ profiling in human PBMCs; type: binding; settings: Lys2
T21 construct: RSK2 domain2; purchased ActivX Technologies (KiNativ)
Protocol: as §1

JNK1,JNK2,JNK3 = assay: KiNativ profiling in human PBMCs; type: binding; settings: Lys2
Protocol: as §1

LKB1 = system: T22, LKB1; assay: KiNativ profiling in human PBMCs; type: binding; settings: Lys2
T22 construct: purchased ActivX Technologies (KiNativ)
Protocol: as §1

PIP4K2C = system: T23, PIP4K2C; assay: KiNativ profiling in human PBMCs; type: binding; settings: ATP
T23 construct: purchased ActivX Technologies (KiNativ)
Protocol: as §1

TAO2 = system: T24, TAO2; assay: KiNativ profiling in human PBMCs; type: binding; settings: Lys2
T24 construct: purchased ActivX Technologies (KiNativ)
Protocol: as §1

CaMK2d = system: T25, CaMK2d; assay: KiNativ profiling in human PBMCs; type: binding; settings: Lys1
T25 construct: purchased ActivX Technologies (KiNativ)
Protocol: as §1

PKD2 = system: T26, PKD2; assay: KiNativ profiling in human PBMCs; type: binding; settings: Lys1
T26 construct: purchased ActivX Technologies (KiNativ)
Protocol: as §1

PLK1 = system: T27, PLK1; assay: KiNativ profiling in human PBMCs; type: binding; settings: Lys1
T27 construct: purchased ActivX Technologies (KiNativ)
Protocol: as §1

Cn1cc(-c2c[nH]c3ncnc(N4CCOCC4)c23)cc1C#N [PFE-360]
inhibition of Rab12 phosphorylation (Rab12-pSer106) (Rab12-pSer106): not able to significant inhibit | inhibition of Rab10 phosphorylation (Rab10-pThr73/total Rab10) (Rab10-pThr73; 1 hr): not at 1 hr | inhibition of Rab10 phosphorylation (Rab10-pThr73/total Rab10) (Rab10-pThr73; 24 hrs): able to inhibit Rab10 phosphorylation at 24 hrs | % Inhibition (MSK2 domain1; 0.1µM): 2.2% | % Inhibition (MSK2 domain1; 1µM): 1.9% | % Inhibition (IKKe,TBK1; 0.1µM): -25.5% | % Inhibition (IKKe,TBK1; 1µM): 16% | % Inhibition (TLK1; 0.1µM, Lys1): -0.5% | % Inhibition (TLK1; 0.1µM, Lys2): 0% | % Inhibition (TLK1; 1µM, Lys1): 3.9% | % Inhibition (TLK1; 1µM, Lys2): -13.2% | % Inhibition (MAP3K4; 0.1µM): -0.3% | % Inhibition (MAP3K4; 1µM): -7.3% | % Inhibition (SGK3; 0.1µM, Lys1): 8.9% | % Inhibition (SGK3; 0.1µM, Lys2): -21.8% | % Inhibition (SGK3; 1µM, Lys1): 5.1% | % Inhibition (SGK3; 1µM, Lys2): -10.5% | % Inhibition (GCK; 0.1µM, Lys1): 7.4% | % Inhibition (GCK; 0.1µM, Lys2): 6.5% | % Inhibition (GCK; 1µM, Lys1): 11.4% | % Inhibition (GCK; 1µM, Lys2): -7.7% | % Inhibition (LOK; 0.1µM, ATP Loop): 26.9% | % Inhibition (LOK; 0.1µM, Lys1): 5.3% | % Inhibition (LOK; 0.1µM, Lys2): -2.3% | % Inhibition (LOK; 1µM, ATP Loop): 29.8% | % Inhibition (LOK; 1µM, Lys1): 39.7% | % Inhibition (LOK; 1µM, Lys2): 22.4% | % Inhibition (KSR1; 0.1µM): 6.8% | % Inhibition (KSR1; 1µM): 8.2% | % Inhibition (MSK1 domain1; 0.1µM): -7.8% | % Inhibition (MSK1 domain1; 1µM): -5.1% | % Inhibition (TLK2; 0.1µM, Lys1): -8.8% | % Inhibition (TLK2; 0.1µM, Lys2): -5.5% | % Inhibition (TLK2; 1µM, Lys1): -9.2% | % Inhibition (TLK2; 1µM, Lys2): -10.6% | % Inhibition (CaMK1d; 0.1µM, Lys1): 8% | % Inhibition (CaMK1d; 0.1µM, Lys2): 6.4% | % Inhibition (CaMK1d; 1µM, Lys1): -1.5% | % Inhibition (CaMK1d; 1µM, Lys2): 20.2% | % Inhibition (NEK1; 0.1µM): 5.9% | % Inhibition (NEK1; 1µM): 2.6% | % Inhibition ([1]; 0.1µM): 10.3% | % Inhibition ([1]; 1µM): -7.3% | % Inhibition (CDK7; 0.1µM): 5% | % Inhibition (CDK7; 1µM): -4.6% | % Inhibition (MARK2,MARK3; 0.1µM): -16.2% | % Inhibition (MARK2,MARK3; 1µM): 16.7% | % Inhibition (RSK2 domain1; 0.1µM, ATP Loop): 13.2% | % Inhibition (RSK2 domain1; 0.1µM, Activation Loop): 9.2% | % Inhibition (RSK2 domain1; 0.1µM, Lys2): -0.1% | % Inhibition (RSK2 domain1; 1µM, ATP Loop): 21.8% | % Inhibition (RSK2 domain1; 1µM, Activation Loop): 20.3% | % Inhibition (RSK2 domain1; 1µM, Lys2): 22.9% | % Inhibition (MAP3K2; 0.1µM): -14.1% | % Inhibition (MAP3K2; 1µM): -24.4% | % Inhibition (p70S6K,p70S6Kb; 0.1µM): -0.2% | % Inhibition (p70S6K,p70S6Kb; 1µM): 13.2% | % Inhibition (BTK; 0.1µM, Activation Loop): -5.6% | % Inhibition (BTK; 0.1µM, Lys1): -12.3% | % Inhibition (BTK; 1µM, Activation Loop): -15.5% | % Inhibition (BTK; 1µM, Lys1): 2.1% | % Inhibition (FYN,SRC,YES; 0.1µM): -0.7% | % Inhibition (FYN,SRC,YES; 1µM): 8.2% | % Inhibition (IKKa; 0.1µM): 17.9% | % Inhibition (IKKa; 1µM): 15.8% | % Inhibition (PKN1; 0.1µM, Lys1): -4.7% | % Inhibition (PKN1; 0.1µM, Lys2): -3.5% | % Inhibition (PKN1; 1µM, Lys1): -10.8% | % Inhibition (PKN1; 1µM, Lys2): -25.9% | % Inhibition (PKCa,PKCb; 0.1µM): -32.8% | % Inhibition (PKCa,PKCb; 1µM): -10.6% | % Inhibition (ULK3; 0.1µM, Lys1): 1% | % Inhibition (ULK3; 0.1µM, Lys2): -2.5% | % Inhibition (ULK3; 1µM, Lys1): -3% | % Inhibition (ULK3; 1µM, Lys2): 0.6% | % Inhibition (DGKA; 0.1µM): 1.4% | % Inhibition (DGKA; 1µM): -4.5% | % Inhibition (PIP5K3; 0.1µM): -6.1% | % Inhibition (PIP5K3; 1µM): -15.9% | % Inhibition (RSK2 domain2; 0.1µM): -7.4% | % Inhibition (RSK2 domain2; 1µM): -13.8% | % Inhibition (JNK1,JNK2,JNK3; 0.1µM): 2.1% | % Inhibition (JNK1,JNK2,JNK3; 1µM): -12% | % Inhibition (LKB1; 0.1µM): 6.5% | % Inhibition (LKB1; 1µM): 0.4% | % Inhibition (PIP4K2C; 0.1µM, peptide TLVIKEVSSEDIADMHSNLSNYHQYIVK): -22.2% | % Inhibition (PIP4K2C; 0.1µM, peptide VKELPTLKDMDFLNK): -16.7% | % Inhibition (PIP4K2C; 1µM, peptide TLVIKEVSSEDIADMHSNLSNYHQYIVK): -14.4% | % Inhibition (PIP4K2C; 1µM, peptide VKELPTLKDMDFLNK): -2.6% | % Inhibition (TAO2; 0.1µM): 1.1% | % Inhibition (TAO2; 1µM): -26.1% | % Inhibition (CaMK2d; 0.1µM): 0.1% | % Inhibition (CaMK2d; 1µM): -3% | % Inhibition (PKD2; 0.1µM): 3.7% | % Inhibition (PKD2; 1µM): -5.1% | % Inhibition (PLK1; 0.1µM): -4.1% | % Inhibition (PLK1; 1µM): -6.7%
